Reference: US9090549B2, “1,4-naphthoquinones derivatives and therapeutic use thereof” (CENTRE NATIONAL DE LA RECHERCHE SCIENTIFIQUE (C.N.R.S.), priority 2008, dated 2015)
Where two headings read alike, the source gives them in different places.

What was measured:
[1] = system: Pf-GHA; assay: Pf-GHA growth inhibition, colorimetric NBT-based lactate dehydrogenase assay; assay type: cell-based; details: Plasmodium falciparum, read-out: IC50 against Pf-GHA
Protocol: The IC50 values against Pf-GHA and MRC-5 were determined by using the less sensitive colorimetric NBT-based lactate dehydrogenase assay (Makler et al, Am. J. Trop. Med. Hyg. 1993, 48 (6), 739-741) based on redox-reactions.
In Vitro Antiparasitic Bioassays. The strain is maintained in RPMI-1640 medium supplemented with 0.37 mM hypoxanthine, 25 mM HEPES, 25 mM NaHCO3, and 10% O^+ human serum together with 2-4% washed human O^+ erythrocytes. All cultures and assays are conducted under an atmosphere of 4% CO2, 3% O2 and 93% N2. Assays are performed in 96-well microtiter plates, each well containing 10 μL of the watery compound dilutions together with 190 μL of the malaria parasite inoculum (1% parasitaemia, 2% HCT). After 72 h incubation, plates are frozen and stored at −20° C. After thawing, 20 μL of each well is transferred into another plate together with 100 μL Malstat reagent and 20 μL of 1/1 mixture of PES (phenazine ethosulfate, 0.1 mg/mL) and NBT (Nitro Blue Tetrazolium Grade III, 2 mg/mL). Change in colour is measured spectrophotometrically at 655 nm. The results are expressed as % reduction in parasitaemia compared to control wells. Compounds are treated at 5 concentrations (64-16-4-1 and 0.25 μM or μg/mL).

[2] = system: P. falciparum multidrug-resistant strain Dd2; assay: Dd2 growth inhibition, 3H-hypoxanthine assay; assay type: cell-based, Plasmodium falciparum; details: for IC50: Plasmodium falciparum, DD2, 48 h exposure then 24 h hypoxanthine, read-out: IC50 against Dd2
Protocol: The IC50 was tested by standard in vitro antiproliferation assays (Desjardins et al, 1979 Antimicrob. Agents Chemother 1979, 16, 710-718). Infected erythrocytes in ring stage (0.5% parasitemia, 2.5% hematocrit) in 96-well plates were exposed to the compounds for 48 h and then to radioactive hypoxanthine for 24 h. The amount of radioactivity in precipitable material served as an index of cell proliferation.

[3] = system: P. berghei ANKA; assay: In vivo 4-day suppressive test in P. berghei-infected mice; design: species or system Plasmodium berghei; details: intraperitoneal
Protocol: The in vivo tests in the mouse model were done according to a standard protocol (Peters et al Handbook of Animal Models of Infection; Academic Press, London, 1999; pp. 756-771). […] […] For administration, compounds were freshly prepared in 10% DMSO in sterile phosphate-buffered saline the day of use. Two hours post-infection mice received the first treatment by the intraperitoneal route. Mice were further treated on days +1-3. Blood films from tail blood were prepared on day +4, and parasitaemia was determined by microscopic examination of Giemsa-stained blood films. […] […] Mice were treated and levels of parasitemia determined as described.

Q: What does the source list for `CC1=C(Cc2ccc(C(C)(C)C)cc2)C(=O)c2c(O)cccc2C1=O` [P_TM81, 3-(4-tert-Butyl-benzyl)-5-hydroxy-2-methyl-[1,4]naphthoquinone]?
A: melting point: 112 to 113 °C; IC50 ([1]; 72 h incubation): < 5000 nM

Q: Which melting point does the source give for `COc1ccc(CC2=C(C)C(=O)C3C=CC=CC3C2=O)cc1OC` (stereo not shown) [P_TM54, 2-(3,4-Dimethoxy-benzyl)-3-methyl-4a,8a-dihydro-[1,4]naphthoquinone] here?
A: 102 to 103 °C

Q: For `COC(=O)c1ccc(C(=O)C2=C(C)C(=O)c3ccccc3C2=O)cc1` [P_TM28, 4-(3-Methyl-1,4-dioxo-1,4-dihydro-naphthalene-2-carbonyl)-benzoic acid methyl ester], which melting point is on record?
A: 162 °C

Q: Which melting point does the source give for `COc1ccc(CC2=C(C)C(=O)C3C=CC=CC3C2=O)c(OC)c1` (stereo not shown) [P_TM56, 2-(2,4-Dimethoxy-benzyl)-3-methyl-4a,8a-dihydro-[1,4]naphthoquinone] here?
A: 103 to 105 °C

Q: With `CC1=C(Cc2ccc(C#N)cc2)C(=O)C2C=CC=CC2C1=O` (stereo not shown) [P_TM41, 2-Methyl-3-(4-cyano-benzyl)-4a,8a-dihydro-[1,4]naphthoquinone] as the compound, how does the IC50 [2] read?
A: < 100 nM

Q: What about the melting point of the same compound?
A: 159 to 160 °C

Q: What about the IC50 ([1]; 72 h incubation) of the same compound?
A: < 5000 nM

Q: Which results are given for `CC1=C(Cc2ccc(Br)cc2)C(=O)C2C(O)=CC=CC2C1=O` (stereo not shown) [P_TM42, 3-(4-Bromo-benzyl)-5-hydroxy-2-methyl-4a,8a-dihydro-[1,4]naphthoquinone]?
A: melting point: 163 to 164 °C; IC50 ([1]; 72 h incubation): < 5000 nM

Q: Which results are given for `CC1=C(C(=O)c2ccc(C#N)cc2)C(=O)C2C=CC=CC2C1=O` (stereo not shown) [P_TM46, 2-Methyl-3-(4-cyano-benzoyl)-4a,8a-dihydro-[1,4]naphthoquinone]?
A: melting point: 185 to 186 °C; IC50 ([1]; 72 h incubation): < 5000 nM

Q: With `O=C1C=C(C(F)F)C(=O)c2ccccc21` [HB49, 2-Difluoromethyl-1,4-naphthoquinone] as the compound, how does the melting point read?
A: 74 °C

Q: With `CC1=C(Cc2ccc(-c3ccc(C(C)(C)C)cc3)cc2)C(=O)c2ccccc2C1=O` [P_TM66, 2-(4′-tert-Butyl-biphenyl-4-ylmethyl)-3-methyl-[1,4]naphthoquinone] as the compound, how does the melting point read?
A: 112 to 114 °C

Q: And the IC50 ([1]; 72 h incubation)?
A: < 5000 nM

Q: For `COc1ccc(CC2=C(C)C(=O)C3C=CC=CC3C2=O)cc1` (stereo not shown) [P_TM31, 2-Methyl-3-(4-methoxy-benzyl)-4a,8a-dihydro-[1,4]naphthoquinone], which IC50 [2] is on record?
A: < 100 nM

Q: And the melting point?
A: 112 to 113 °C

Q: For `CCCCC(C1=C(C)C(=O)c2ccccc2C1=O)c1ccc(-c2ccc([N+](=O)[O-])cc2)cc1` (stereo not shown) [P_TM67, 2-(4′-nitro-Butyl-biphenyl-4-ylmethyl)-3-methyl-[1,4]naphthoquinone], which IC50 ([1]; 72 h incubation) is on record?
A: < 5000 nM

Q: For `COc1c(C)c(Cc2ccc(N3CCN(Cc4ccc(C(C)(C)C)cc4)CC3)cc2)c(OC)c2ccccc12` [P_TM78, 1-(4-tert-Butyl-benzyl)-4-[4-(1,4-dimethoxy-3-methyl-naphthalen-2-ylmethyl)-phenyl]piperazine], which melting point is on record?
A: 63 to 65 °C

Q: With `CC1=C(Cc2ccc(N)cc2)C(=O)C2C=CC=CC2C1=O` (stereo not shown) [P_TM103, 2-Methyl-3-(4-amino-benzyl)-4a,8a-dihydro-[1,4]naphthoquinone] as the compound, how does the melting point read?
A: 152 to 153 °C

Q: Which melting point does the source give for `COc1cccc(CC2=C(C)C(=O)c3ccccc3C2=O)c1` [P_TM96, 2-(3-Methoxy-benzyl)-3-methyl-[1,4]naphthoquinone] here?
A: 87 to 88 °C

Q: With `CC1=C(Cc2ccc(NC(=O)OC(C)(C)C)cc2)C(=O)C2C=CC=CC2C1=O` (stereo not shown) [P_TM45, [4-(3-Methyl-1,4-dioxo-1,4,4a,8a-tetrahydro-naphthalen-2-ylmethyl)-phenyl]-carbamic acid tert-butyl ester] as the compound, how does the melting point read?
A: 148 to 149 °C

Q: For `O=C1C(O)=C([C@H]2CC[C@H](c3ccc(Cl)cc3)CC2)C(=O)c2ccccc21` [atovaquone, reference compound], which IC50 [2] is on record?
A: < 0.1 nM

Q: What about the IC50 ([1]; 72 h incubation) of the same compound?
A: 310 nM

Q: For `COc1ccccc1C(=O)C1=C(C)C(=O)C2C=CC=CC2C1=O` (stereo not shown) [P_TM35, 2-Methyl-3-(2-methoxy-benzoyl)-4a,8a-dihydro-[1,4]naphthoquinone], which melting point is on record?
A: 146 to 147 °C

Q: For `COc1ccccc1CC1=C(C)C(=O)C2C=CC=CC2C1=O` (stereo not shown) [P_TM32, 2-Methyl-3-(2-methoxy-benzyl)-4a,8a-dihydro-[1,4]naphthoquinone], which IC50 [2] is on record?
A: < 100 nM

Q: And the melting point?
A: 117 to 118 °C

Q: For `CC1=C(Cc2ccc(Cl)cc2)C(=O)C2C=CC=CC2C1=O` (stereo not shown) [P_TM30, 2-Methyl-3-(4-chloro-benzyl)-4a,8a-dihydro-[1,4]naphthoquinone], which IC50 [2] is on record?
A: < 100 nM

Q: What about the melting point of the same compound?
A: 134 to 135 °C

Q: And the IC50 ([1]; 72 h incubation)?
A: < 5000 nM

Q: With `CC1=C(C(=O)c2ccc(C(=O)O)cc2)C(=O)C2C=CC=CC2C1=O` (stereo not shown) [P_TM22, 4-(3-Methyl-1,4-dioxo-1,4,4a,8a-tetrahydro-naphthalene-2-carbonyl)-benzoic acid] as the compound, how does the melting point read?
A: 201 °C (dec.)

Q: With `CC1=C(Cc2ccc(C(=O)NCCC#N)cc2)C(=O)C2C=CC=CC2C1=O` (stereo not shown) [P_TM53, N-(2-Cyano-ethyl)-4-(3-methyl-1,4-dioxo-1,4,4a,8a-tetrahydronaphthalen-2-ylmethyl)-benzamide] as the compound, how does the melting point read?
A: 131 to 132 °C

Q: With `C[C@H]1[C@H](OC(=O)CCC(=O)O)O[C@@H]2O[C@@]3(C)CC[C@H]4[C@H](C)CC[C@@H]1[C@@]24OO3` [Artesunate, reference compound] as the compound, how does the IC50 ([1]; 72 h) read?
A: 5 nM

Q: With `CC1=C(Cc2ccc(C(=O)O)cc2)C(=O)C2C=CC=CC2C1=O` (stereo not shown) [P_TM50, 4-(3-Methyl-1,4-dioxo-1,4,4a,8a-tetrahydro-naphthalen-2-ylmethyl)-benzoic acid] as the compound, how does the melting point read?
A: 206 to 208 °C

Q: Which melting point does the source give for `CC1=C(C(=O)c2ccc(C(C)(C)C)cc2)C(=O)C2C=CC=CC2C1=O` (stereo not shown) [P_TM48, 2-Methyl-3-(4-tertbutyl-benzoyl)-4a,8a-dihydro-[1,4]naphthoquinone] here?
A: 64 to 65 °C

Q: Which results are given for `CC1=C(Cc2ccccc2)C(=O)C2C=CC=CC2C1=O` (stereo not shown) [P_TM62, 2-Methyl-3-benzyl-4a,8a-dihydro-[1,4]naphthoquinone]?
A: antimalarial activity against Dd2 ([2]; compared with substituted benzyl derivatives): less active; melting point: 103 to 104 °C

Q: Which IC50 ([1]; 72 h incubation) does the source give for `CC1=C(C(=O)c2ccc(Cl)cc2)C(=O)C2C=CC=CC2C1=O` (stereo not shown) [P_TM38, 2-Methyl-3-(4-chloro-benzoyl)-4a,8a-dihydro-[1,4]naphthoquinone] here?
A: < 5000 nM

Q: Which IC50 [2] does the source give for `COc1cc(CC2=C(C)C(=O)C3C=CC=CC3C2=O)cc(OC)c1` (stereo not shown) [P_TM58, 2-(3,5-Dimethoxy-benzyl)-3-methyl-4a,8a-dihydro-[1,4]naphthoquinone] here?
A: < 100 nM

Q: What about the melting point of the same compound?
A: 127 to 128 °C

Q: And the IC50 ([1]; 72 h incubation)?
A: < 5000 nM

Q: Which melting point does the source give for `COc1c(C)c(C(O)c2ccc(Br)cc2)c(OC)c2ccccc12` (stereo not shown) [P_TM7, (4-Bromo-phenyl)-(1,4-dimethoxy-3-methyl-naphthalen-2-yl)-methanol] here?
A: 67 to 68 °C

Q: With `CC1=C(Cc2ccc(C(C)C)cc2)C(=O)C2C=CC=CC2C1=O` (stereo not shown) [P_TM100, 2-Methyl-3-(4-isopropyl-benzyl)-4a,8a-dihydro-[1,4]naphthoquinone] as the compound, how does the melting point read?
A: 64 to 65 °C

Q: For `CC1=C(Cc2ccc([N+](=O)[O-])cc2)C(=O)C2C=CC=CC2C1=O` (stereo not shown) [P_TM37, 2-Methyl-3-(4-nitro-benzyl)-4a,8a-dihydro-[1,4]naphthoquinone], which reduction in parasitaemia ([3]; daily dose of 30 mg/kg, 4-day test, mice) is on record?
A: 42.4%

Q: What about the “activity on 4-day treatment” value ([3]; P. berghei-infected mice) of the same compound?
A: significant activity

Q: And the melting point?
A: 156 to 157 °C

Q: Which melting point does the source give for `O=C1C(Cc2ccc(Br)cc2)=C(C(F)F)C(=O)c2ccccc21` [P_TM101, 2-(4-Bromo-benzyl)-3-difluoromethyl-[1,4]naphthoquinone] here?
A: 103 to 104 °C

Q: For `COc1c(C)c(Cc2ccc(Cl)cc2)c(OC)c2ccccc12` [P_TM75, 2-(4-Chloro-benzyl)-1,4-dimethoxy-3-methyl-naphthalene], which melting point is on record?
A: 101 to 102 °C

Q: Which melting point does the source give for `CC1=C(Cc2ccc(F)cc2)C(=O)C2C=CC=CC2C1=O` (stereo not shown) [P_TM26, 2-Methyl-3-(4-fluoro-benzyl)-4a,8a-dihydro-[1,4]naphthoquinone] here?
A: 118 to 119 °C

Q: Which results are given for `COc1ccc(OC)c(CC2=C(C)C(=O)C3C=CC=CC3C2=O)c1` (stereo not shown) [P_TM60, 2-(2,5-Dimethoxy-benzyl)-3-methyl-4a,8a-dihydro-[1,4]naphthoquinone]?
A: IC50 [2]: < 100 nM; melting point: 140 to 142 °C

Q: Which melting point does the source give for `CC1=C(Cc2cccc(Br)c2)C(=O)C2C=CC=CC2C1=O` (stereo not shown) [P_TM99, 2-Methyl-3-(3-bromo-benzyl)-4a,8a-dihydro-[1,4]naphthoquinone] here?
A: 108 to 109 °C
